The text below walks through data of patent US20240239861A1, “GLUCAGON-RECEPTOR SELECTIVE POLYPEPTIDES AND METHODS OF USE THEREOF” (i2O Therapeutics, Inc., priority 2016, published 2024).

pEC50: −log10 of the molar value. Where a SMILES comes first, the peptide text is derived from it. [ ]: non-standard residue; d: D form. Aib = CC(C)(N)C(=O)O

One experiment has as its target human GLP-1R (Homo sapiens, UniProt P43220). Put plainly: Peptide-receptor mediated cAMP accumulation (LANCE Ultra cAMP) in CHO-K1 cells transfected with human GLP-1R. In kind it is cell-based. The following applies: hGLP1 pEC50 (cAMP mean (n = 3): 11 point curve starting at 1 nM, Table 3).
In another experiment the target is human GCGR (Homo sapiens, UniProt P47871). Put plainly: Peptide-receptor mediated cAMP accumulation (LANCE Ultra cAMP) in CHO-K1 cells transfected with human GCGR. The format is cell-based. The following applies: Table 3.
Sequence of human GCGR (P47871 26-477): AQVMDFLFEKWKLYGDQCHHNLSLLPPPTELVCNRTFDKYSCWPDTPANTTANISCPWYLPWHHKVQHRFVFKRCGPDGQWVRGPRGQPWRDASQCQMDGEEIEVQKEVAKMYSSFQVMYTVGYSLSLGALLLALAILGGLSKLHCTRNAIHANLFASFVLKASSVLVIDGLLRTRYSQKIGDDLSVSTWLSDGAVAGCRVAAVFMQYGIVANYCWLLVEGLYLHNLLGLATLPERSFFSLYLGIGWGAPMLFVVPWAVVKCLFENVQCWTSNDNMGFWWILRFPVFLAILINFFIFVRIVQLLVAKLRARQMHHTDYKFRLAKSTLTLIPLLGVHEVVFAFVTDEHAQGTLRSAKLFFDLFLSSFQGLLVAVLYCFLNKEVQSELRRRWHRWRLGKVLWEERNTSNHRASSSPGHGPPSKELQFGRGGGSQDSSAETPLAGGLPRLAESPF

Sequence of human GLP-1R (P43220 24-463): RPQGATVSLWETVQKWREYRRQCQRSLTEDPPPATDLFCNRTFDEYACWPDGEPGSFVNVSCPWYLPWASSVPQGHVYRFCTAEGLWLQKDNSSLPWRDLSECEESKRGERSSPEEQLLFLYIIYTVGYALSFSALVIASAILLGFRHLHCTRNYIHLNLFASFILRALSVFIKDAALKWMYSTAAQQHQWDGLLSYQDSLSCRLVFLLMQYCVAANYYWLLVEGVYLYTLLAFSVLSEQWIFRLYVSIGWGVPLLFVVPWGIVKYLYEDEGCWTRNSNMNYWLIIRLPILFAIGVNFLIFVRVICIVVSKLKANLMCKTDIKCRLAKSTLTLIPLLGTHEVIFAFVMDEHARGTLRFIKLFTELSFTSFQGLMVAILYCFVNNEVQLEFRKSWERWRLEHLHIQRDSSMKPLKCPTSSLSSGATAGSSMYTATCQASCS

On to `CC(C)C[C@H](NC(=O)[C@H](Cc1ccc(O)cc1)NC(=O)[C@H](CCCCN)NC(=O)[C@H](CO)NC(=O)[C@H](Cc1ccc(O)cc1)NC(=O)[C@H](CC(=O)O)NC(=O)[C@H](CO)NC(=O)[C@@H](NC(=O)[C@H](Cc1ccccc1)NC(=O)[C@@H](NC(=O)CNC(=O)[C@H](Cc1c[nH]cn1)NC(=O)[C@H](CO)NC(=O)[C@@H](N)Cc1ccc(O)cc1)[C@@H](C)O)[C@@H](C)O)C(=O)N[C@@H](CC(=O)O)C(=O)NC(C)(C)C(=O)N[C@@H](CCCCN)C(=O)N[C@@H](CCCNC(=N)N)C(=O)N[C@@H](C)C(=O)N[C@@H](CCC(N)=O)C(=O)N[C@@H](CCC(=O)O)C(=O)N[C@@H](Cc1ccccc1)C(=O)N[C@H](C(=O)NC(C)(C)C(=O)N[C@@H](Cc1c[nH]c2ccccc12)C(=O)N[C@@H](CC(C)C)C(=O)N[C@@H](CCC(=O)O)C(=O)N[C@@H](CC(=O)O)C(=O)N[C@@H](CCC(=O)O)C(=O)N[C@@H](CCCCN)C(=O)N[C@@H](CCCNC(=N)N)C(=O)N[C@@H](CC(N)=O)C(=O)N[C@@H](CCCCN)C(=O)N1CCC[C@H]1C(=O)N1CCC[C@H]1C(=O)N1CCC[C@H]1C(=O)N[C@@H](CO)C(=O)O)C(C)C` [Compound A50] (H-YSHGTFTSDYSKYLD[Aib]KRAQEFV[Aib]WLEDEKRNKPPPS-OH; N-terminus assumed), for which the pEC50 is under 9.00 at human GLP-1R and 11.50 on human GCGR.
On the same counts, the results for `CC(C)C[C@H](NC(=O)[C@H](Cc1c[nH]c2ccccc12)NC(=O)[C@H](CC(C)C)NC(=O)[C@@H](NC(=O)[C@H](Cc1ccccc1)NC(=O)[C@H](CCC(=O)O)NC(=O)[C@H](CCC(N)=O)NC(=O)[C@H](C)NC(=O)[C@H](CCCNC(=N)N)NC(=O)[C@H](CCCCN)NC(=O)C(C)(C)NC(=O)[C@H](CC(=O)O)NC(=O)[C@H](CC(C)C)NC(=O)[C@H](Cc1ccc(O)cc1)NC(=O)[C@H](CCCCN)NC(=O)[C@H](CO)NC(=O)[C@H](Cc1ccc(O)cc1)NC(=O)[C@H](CC(=O)O)NC(=O)[C@H](CO)NC(=O)[C@@H](NC(=O)[C@H](Cc1ccccc1)NC(=O)[C@@H](NC(=O)CNC(=O)[C@H](Cc1c[nH]cn1)NC(=O)[C@H](CO)NC(=O)[C@@H](N)Cc1ccc(O)cc1)[C@@H](C)O)[C@@H](C)O)C(C)C)C(=O)N[C@@H](CCC(=O)O)C(=O)N[C@@H](CC(=O)O)C(=O)N[C@@H](CCC(=O)O)C(=O)N1CCC[C@H]1C(=O)N[C@@H](CO)C(=O)N[C@@H](CO)C(=O)NCC(=O)N[C@@H](C)C(=O)N1CCC[C@H]1C(=O)N1CCC[C@H]1C(=O)N1CCC[C@H]1C(=O)N[C@@H](CO)C(=O)O` [Compound A53] (H-YSHGTFTSDYSKYLD[Aib]KRAQEFVLWLEDEPSSGAPPPS-OH; N-terminus assumed) are under 9.00 and 11.60.
For the compound `CC(C)C[C@H](NC(=O)[C@H](Cc1ccc(O)cc1)NC(=O)[C@H](CCCCN)NC(=O)[C@H](CO)NC(=O)[C@H](Cc1ccc(O)cc1)NC(=O)[C@H](CC(=O)O)NC(=O)[C@H](CO)NC(=O)[C@@H](NC(=O)[C@H](Cc1ccccc1)NC(=O)[C@@H](NC(=O)CNC(=O)[C@H](Cc1c[nH]cn1)NC(=O)[C@H](CO)NC(=O)[C@@H](N)Cc1ccc(O)cc1)[C@@H](C)O)[C@@H](C)O)C(=O)N[C@@H](CC(=O)O)C(=O)NC(C)(C)C(=O)N[C@@H](CCCCN)C(=O)N[C@@H](CCCNC(=N)N)C(=O)N[C@@H](C)C(=O)N[C@@H](CCC(N)=O)C(=O)N[C@@H](CCC(=O)O)C(=O)N[C@@H](Cc1ccccc1)C(=O)N[C@H](C(=O)NC(C)(C)C(=O)N[C@@H](Cc1c[nH]c2ccccc12)C(=O)N[C@@H](CC(C)C)C(=O)N[C@@H](CCC(=O)O)C(=O)N[C@@H](CC(=O)O)C(=O)N[C@@H](CCC(=O)O)C(=O)N1CCC[C@H]1C(=O)N[C@@H](CCCCN)C(=O)N[C@@H](CO)C(=O)N[C@@H](CCCCN)C(=O)N[C@@H](CCC(N)=O)C(=O)N1CCC[C@H]1C(=O)N1CCC[C@H]1C(=O)N1CCC[C@H]1C(=O)N[C@@H](CO)C(=O)O)C(C)C` [Compound A57] (H-YSHGTFTSDYSKYLD[Aib]KRAQEFV[Aib]WLEDEPKSKQPPPS-OH; N-terminus assumed), the pEC50 is under 9.00 at human GLP-1R and 12.00 at human GCGR.
On the same counts, the results for `CC(C)C[C@H](NC(=O)[C@H](Cc1ccc(O)cc1)NC(=O)[C@H](CCCCN)NC(=O)[C@H](CO)NC(=O)[C@H](Cc1ccc(O)cc1)NC(=O)[C@H](CC(=O)O)NC(=O)[C@H](CO)NC(=O)[C@@H](NC(=O)[C@H](Cc1ccccc1)NC(=O)[C@@H](NC(=O)CNC(=O)[C@H](Cc1c[nH]cn1)NC(=O)[C@@H](NC(=O)[C@@H](N)Cc1ccc(O)cc1)[C@@H](C)O)[C@@H](C)O)[C@@H](C)O)C(=O)N[C@@H](CC(=O)O)C(=O)NC(C)(C)C(=O)N[C@@H](CCCCN)C(=O)N[C@@H](CCCNC(=N)N)C(=O)N[C@@H](C)C(=O)N[C@@H](CCC(N)=O)C(=O)N[C@@H](CCC(=O)O)C(=O)N[C@@H](Cc1ccccc1)C(=O)N[C@H](C(=O)NC(C)(C)C(=O)N[C@@H](Cc1c[nH]c2ccccc12)C(=O)N[C@@H](CC(C)C)C(=O)N[C@@H](CCC(=O)O)C(=O)N[C@@H](CC(=O)O)C(=O)N[C@@H](CCC(=O)O)C(=O)N1CCC[C@H]1C(=O)N[C@@H](CO)C(=O)N[C@@H](CO)C(=O)NCC(=O)N[C@@H](CCCCN)C(=O)N1CCC[C@H]1C(=O)N1CCC[C@H]1C(=O)N1CCC[C@H]1C(=O)N[C@@H](CO)C(=O)O)C(C)C` [Compound A60] (H-YTHGTFTSDYSKYLD[Aib]KRAQEFV[Aib]WLEDEPSSGKPPPS-OH; N-terminus assumed) are under 9.00 and 11.30.
With `CC(C)C[C@H](NC(=O)[C@H](Cc1ccc(O)cc1)NC(=O)[C@H](CCCCN)NC(=O)[C@H](CO)NC(=O)[C@H](Cc1ccc(O)cc1)NC(=O)[C@H](CC(=O)O)NC(=O)[C@H](CO)NC(=O)[C@@H](NC(=O)[C@H](Cc1ccccc1)NC(=O)[C@@H](NC(=O)CNC(=O)[C@H](Cc1c[nH]cn1)NC(=O)[C@@H](NC(=O)[C@@H](N)Cc1ccc(O)cc1)[C@@H](C)O)[C@@H](C)O)[C@@H](C)O)C(=O)N[C@@H](CC(=O)O)C(=O)NC(C)(C)C(=O)N[C@@H](CCCCN)C(=O)N[C@@H](CCCNC(=N)N)C(=O)N[C@@H](C)C(=O)N[C@@H](CCC(N)=O)C(=O)N[C@@H](CCC(=O)O)C(=O)N[C@@H](Cc1ccccc1)C(=O)N[C@H](C(=O)NC(C)(C)C(=O)N[C@@H](Cc1c[nH]c2ccccc12)C(=O)N[C@@H](CC(C)C)C(=O)N[C@@H](CCC(=O)O)C(=O)N[C@@H](CC(=O)O)C(=O)N[C@@H](CCC(=O)O)C(=O)N1CCC[C@H]1C(=O)N[C@@H](CO)C(=O)N[C@@H](CO)C(=O)NCC(=O)N[C@@H](C)C(=O)N1CCC[C@H]1C(=O)N1CCC[C@H]1C(=O)N1CCC[C@H]1C(=O)N[C@@H](CO)C(=O)O)C(C)C` [Compound A62] (H-YTHGTFTSDYSKYLD[Aib]KRAQEFV[Aib]WLEDEPSSGAPPPS-OH; N-terminus assumed), the pEC50 on human GLP-1R was under 9.00; on human GCGR it was 11.50.
For `CC(C)C[C@H](NC(=O)[C@H](Cc1ccc(O)cc1)NC(=O)[C@H](CCCCN)NC(=O)[C@H](CO)NC(=O)[C@H](Cc1ccc(O)cc1)NC(=O)[C@H](CC(=O)O)NC(=O)[C@H](CO)NC(=O)[C@@H](NC(=O)[C@H](Cc1ccccc1)NC(=O)[C@@H](NC(=O)CNC(=O)[C@H](Cc1c[nH]cn1)NC(=O)[C@@H](NC(=O)[C@@H](N)Cc1ccc(O)cc1)[C@@H](C)O)[C@@H](C)O)[C@@H](C)O)C(=O)N[C@@H](CC(=O)O)C(=O)N[C@@H](CO)C(=O)N[C@@H](C)C(=O)N[C@@H](CCCNC(=N)N)C(=O)N[C@@H](C)C(=O)N[C@@H](CCC(N)=O)C(=O)N[C@@H](CCC(=O)O)C(=O)N[C@@H](Cc1ccccc1)C(=O)N[C@H](C(=O)N[C@@H](CCCCN)C(=O)N[C@@H](Cc1c[nH]c2ccccc12)C(=O)N[C@@H](CC(C)C)C(=O)N[C@@H](CCC(=O)O)C(=O)N[C@@H](CC(=O)O)C(=O)N[C@@H](CCC(=O)O)C(=O)N1CCC[C@H]1C(=O)N[C@@H](CO)C(=O)N[C@@H](CO)C(=O)NCC(=O)N[C@@H](C)C(=O)N1CCC[C@H]1C(=O)N1CCC[C@H]1C(=O)N1CCC[C@H]1C(=O)N[C@@H](CO)C(=O)O)C(C)C` [Compound A63] (H-YTHGTFTSDYSKYLDSARAQEFVKWLEDEPSSGAPPPS-OH), the values for the pEC50 at human GLP-1R and on human GCGR were under 9.00 and 10.40, respectively.
On the same counts, the results for `CC(C)C[C@H](NC(=O)[C@H](Cc1ccc(O)cc1)NC(=O)[C@H](CCCCN)NC(=O)[C@H](CO)NC(=O)[C@H](Cc1ccc(O)cc1)NC(=O)[C@H](CC(=O)O)NC(=O)[C@H](CO)NC(=O)[C@@H](NC(=O)[C@H](Cc1ccccc1)NC(=O)[C@@H](NC(=O)CNC(=O)[C@H](Cc1c[nH]cn1)NC(=O)[C@@H](NC(=O)[C@@H](N)Cc1ccc(O)cc1)[C@@H](C)O)[C@@H](C)O)[C@@H](C)O)C(=O)N[C@@H](CC(=O)O)C(=O)NC(C)(C)C(=O)N[C@@H](C)C(=O)N[C@@H](CCCNC(=N)N)C(=O)N[C@@H](C)C(=O)N[C@@H](CCC(N)=O)C(=O)N[C@@H](CCC(=O)O)C(=O)N[C@@H](Cc1ccccc1)C(=O)N[C@H](C(=O)NC(C)(C)C(=O)N[C@@H](Cc1c[nH]c2ccccc12)C(=O)N[C@@H](CC(C)C)C(=O)N[C@@H](CCC(=O)O)C(=O)N[C@@H](CC(=O)O)C(=O)N[C@@H](CCC(=O)O)C(=O)N1CCC[C@H]1C(=O)N[C@@H](CO)C(=O)N[C@@H](CO)C(=O)NCC(=O)N[C@@H](C)C(=O)N1CCC[C@H]1C(=O)N1CCC[C@H]1C(=O)N1CCC[C@H]1C(=O)N[C@@H](CO)C(=O)O)C(C)C` [Compound A64] (H-YTHGTFTSDYSKYLD[Aib]ARAQEFV[Aib]WLEDEPSSGAPPPS-OH; N-terminus assumed) are under 9.00 and 10.70.
